Source: patent US20120270819A1, “USE OF COMPOUNDS WITH SGLT-1/SGLT-2 INHIBITOR ACTIVITY FOR PRODUCING MEDICAMENTS FOR TREATMENT OF BONE DISEASE” (SANOFI, priority 2009, published 2012)

Columns and labels:
[1] = target: T1, human sodium-dependent glucose transporter 1 (SGLT1, SLC5A1) (Homo sapiens, UniProt P13866); assay: Inhibition of methyl α-D-glucopyranoside uptake in CHO-TRex-hSGLT1 cells; format: cell-based; details: recombinant SGLT1; read-out: IC50 SGLT 1
T1 construct: Bases 11 to 2005 correspond to the complete coding region of human SGLT1; expressed in transfected cells; host or cells: CHO-TRex cells (Invitrogen), pcDNA4/TO vector, tetracycline-induced
T1 sequence (P13866 1-664): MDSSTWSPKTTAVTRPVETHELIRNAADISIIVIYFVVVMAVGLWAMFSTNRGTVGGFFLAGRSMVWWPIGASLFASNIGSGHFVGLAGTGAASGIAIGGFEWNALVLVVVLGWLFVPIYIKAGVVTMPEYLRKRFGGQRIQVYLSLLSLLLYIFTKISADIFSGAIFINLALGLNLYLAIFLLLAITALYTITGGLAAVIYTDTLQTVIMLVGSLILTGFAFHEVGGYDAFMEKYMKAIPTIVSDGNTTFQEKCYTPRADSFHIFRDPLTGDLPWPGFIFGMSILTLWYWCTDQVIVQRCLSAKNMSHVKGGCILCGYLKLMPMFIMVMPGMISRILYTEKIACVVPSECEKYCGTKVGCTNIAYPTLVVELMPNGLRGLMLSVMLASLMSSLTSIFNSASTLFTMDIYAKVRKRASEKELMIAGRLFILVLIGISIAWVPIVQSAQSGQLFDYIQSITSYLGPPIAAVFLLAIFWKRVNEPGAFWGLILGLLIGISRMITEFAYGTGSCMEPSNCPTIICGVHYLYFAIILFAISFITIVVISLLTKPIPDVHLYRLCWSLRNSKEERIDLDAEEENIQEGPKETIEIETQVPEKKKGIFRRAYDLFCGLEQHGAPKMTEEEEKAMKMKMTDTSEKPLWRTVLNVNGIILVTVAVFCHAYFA
Excerpt: A further method for testing the activity of the compounds is the inhibition of the transport activity of the human sodium-dependent glucose transporter 1 (SGLT1, SLC5A1) in vitro:
1. Cloning of an Expression Vector for Human SGLT1
The cDNA for human SGLT1 was introduced into the pcDNA4/TO vector (Invitrogen) by standard methods of molecular biology as described in Sambrook et al. (Sambrook et al., Molecular Cloning, A Laboratory Manual, 2nd Edition). […] Bases 11 to 2005 correspond to the complete coding region of human SGLT1.
2. Preparation of a Recombinant Cell Line with Inducible Expression of Human SGLT1
The expression vector for human SGLT1 was introduced into CHO-TRex cells (Invitrogen) by means of FuGene6 lipofection (Roche). To select single cell clones, 600 μg/ml Zeocin (Invitrogen) was added to the cell culture medium (Nutrient Mixture F-12 (Ham), (Invitrogen) supplemented with 10% fetal calf serum (BD Biosciences), 10 μg/ml blasticidin S(CN Biosciences), 100 units/ml penicillin, 100 units/ml streptomycin). The functionality of the single cell clones resulting from the selection was tested via their uptake activity for radiolabeled methyl α-D-glucopyranoside. The cell clone with the greatest uptake activity for methyl α-D-glucopyranoside, referred to as CHO-TRex-hSGLT1 hereinafter, was selected for further experiment, and cultivation was continued in the presence of 600 μg/ml of zeocin.
3. Measurement of the Inhibitory Effect of Test Substances on the Uptake of Methyl-D-qlucopyranoside (-MDG)
CHO-TRex-hSGLT1 cells were seeded in a concentration of 50 000 cells per well in Cytostar-T scintillating 96-well plates (Amersham Biosciences) in cell culture medium and cultivated for 24 h. Expression of the recombinant human SGLT1 was induced by adding 1 μg/ml tetracyclin for a further 24 h. For α-MDG uptake experiments, the cells were washed with PBS and then starved (PBS supplemented with 10% fetal calf serum) at 37° C. for one hour. […]
The final concentration of methyl α-D-glucopyranoside in the assay was 50 μM. After an incubation time of 30 min at room temperature, the reaction was stopped by adding 50 μl/well of 10 mM methyl α-D-glucopyranoside in transport assay buffer (4° C.), and the radioactivity uptake by the cells was determined in a MicroBeta Scintillation Microplate Reader (Wallac). The half-maximum inhibitory effect of the test substances (IC50) was determined in the following way: • 1. […] This is the measurement in the absence of substance, measured in sodium-containing transport assay buffer. • 2. […] This is the measurement in the absence of substance, measured in sodium-free transport assay buffer (140 mM choline chloride, 2 mM potassium chloride, 1 mM magnesium chloride, 1 mM calcium chloride, 10 mM HEPES/Tris, pH7.5). • 3. […]

[2] = tested on: female Sprague-Dawley mature and young adult rats; assay: Animal study of bone quality, daily oral gavage for a minimum of 28 days (overall findings, histopathology); format: in vivo, rat
Experimental: The following were evaluated: clinical signs (at least weekly), body weight (weekly), food consumption (weekly), hormones (Days 13 and 27), serum and urinary biochemical markers of bone turnover (Days 13 and 27), serum chemistry (at necropsy), bone densitometry by dual energy X-ray absorptiometry (DXA) and peripheral quantitative computed tomography (pQCT) (Week 2 and 4, as well as ex vivo), macroscopic observations at necropsy, organ weights, histopathology, biomechanical strength testing and femoral length measurements.

Structure (SMILES) | IC50 [1] | effects on bone mass and bone strength associated parameters ([2]; both dose levels (10, 50 mg/kg/day), both rat populations) | trabecular bone noted histopathologically ([2]; young only)
COc1ccc(Cc2ccccc2OC2OC(CO)C(F)C(O)C2O)cc1 (stereo not drawn) [Example 1 of formula III] | 770 nM | – | –
CCc1ccc(Cc2ccccc2OC2OC(CO)C(F)C(O)C2O)cc1 (stereo not drawn) [Example 20 of formula III] | 320 nM | – | –
COc1ccc(Cc2c(OC3OC(CO)C(F)C(O)C3O)n[nH]c2C(F)(F)F)cc1 (stereo not drawn) [Example 5 of formula II] | 29 nM | positive effects | increase in trabecular bone
CC(C)c1[nH]nc(OC2OC(CO)C(F)C(O)C2O)c1Cc1ccc(CCCC(=O)NC(CO)(CO)CO)cc1 (stereo not drawn) [Example 21 of formula I] | 27 nM | – | –
